# Measurements reported in patent US7741520B2, “Sulfonanilide analogs as selective aromatase modulators (SAMs)” (The Ohio State University Research Foundation, priority 2006, dated 2010).
# Experiments:
# SK-BR-3 cells [1] = test: Cell viability analysis (MTT assay) in SK-BR-3 cells; assay type: cell-based, human; details: 10 μM (FIG. 15)
# Experimental: Cell Viability Analysis. The effect of nimesulides derivatives on SK-BR-3 cell viability was assessed by using the 3-(4,5-dimethylthiazol-2-yl)-2,5-diphenyl-2H-tetrazolium bromide assay in six replicates. Cells were grown in custom media in 96-well, flat-bottomed plates for 24 h, and were exposed to various concentrations of nimesulide derivatives dissolved in DMSO (final concentration ≦0.1%) in define media for different time intervals. Controls received DMSO vehicle at a concentration equal to that in drug-treated cells. The medium was removed, replaced by 200 μl of 0.5 mg/ml of 3-(4,5-dimethylthiazol-2-yl)-2,5-diphenyl-2H-tetrazolium bromide in fresh media, and cells were incubated in the CO2 incubator at 37° C. for 2 h. Supernatants were removed from the wells, and the reduced 3-(4,5-dimethylthiazol-2-yl)-2,5-diphenyl-2H-tetrazolium bromide dye was solubilized in 200 μl/well DMSO. Absorbance at 570 nm was determined on a plate reader.
# SK-BR-3 cells [2] = test: Analysis of apoptosis (single-stranded DNA ELISA) in SK-BR-3 cells; assay type: cell-based, human; details: 5 μM, 24 hours (FIG. 16)
# Experimental: Analysis of apoptosis. Apoptosis was determined by selective denaturation of DNA in apoptotic cells by formamide and detection of denatured DNA with a monoclonal antibody to single-stranded DNA using an ELISA kit (CHEMICON, Temecula, Calif.). Cells were plated in a 96-well flat bottom plate from 0.5×10^4 to 1×10^4 cells/well in custom media. Cells were allowed to adhere to wells overnight. Following incubation, compounds were made up in define media and a 5 μM screen was performed in each cell line with respective compounds in triplicate for 24 hours. Following treatment, the plate was centrifuged at 200×g for 5 min, media was removed followed by the addition of 200 μl of fixative. The plate was incubated for 30 min at 37° C., at which point the fixative was removed and the plate dried for 1-2 hours at room temperature. Fifty microliters of formamide was added to each well following a brief incubation at room temperature for 10 min. The DNA in apoptotic cells was denatured by heating the plate for 10 min, then briefly cooling the plate for 5 min at 4° C. following removal of formamide. The plate was rinsed three times with 200 μl of PBS following one hour incubation at 37° C. with 200 μl of 3% blocking agent. After removal of the blocking agent, 100 μl of antibody mixture were added to each well for 30 min at room temperature. The plate was washed three times with 1× wash buffer using 250 μl of wash buffer/well followed by the addition of 200 μl of ABTS solution added to each well for a 15-60 minute incubation. The reaction was stopped by the addition of 100 μl of a stop solution added to each well and absorbance was measured at 405 nm on a SpectroMax 340 UV PlateReader.
# [3] = tested on: CYP19 mRNA expression in SK-BR-3 cells; test: CYP19 mRNA expression by real-time RT-PCR in SK-BR-3 cells; assay type: cell-based, human; details: 5 μM, 24 h (FIG. 14)
# Experimental: (§1) RNA Extraction. Total RNA was isolated using the TRIzol reagent according to the manufacturer's protocol. Total RNA pellets were dissolved in DNase- and RNase-free water and quantitated using a spectrophotometer. The quality of RNA samples was determined by electrophoresis through agarose gels and staining with ethidium bromide; the 18S and 28S rRNA bands were visualized under ultraviolet light.
# (§2) cDNA Synthesis. Isolated total RNA (2 μg) was treated with DNase I Amplification grade, according to the recommended protocol to eliminate any DNA before reverse transcription. Treated total RNA was denatured at 65° C. for 5 min in the presence of 2.5 ng/μL random hexamers and 0.5 mM dNTP mix. The samples were snap-cooled on ice and centrifuged briefly. Complementary DNA (cDNA) was synthesized using Superscript II reverse transcriptase according to the recommended protocol. Briefly, the reactions were conducted in the presence of 1× First-Strand Buffer and 20 mM DTT at 42° C. for 50 min and consequently inactivated at 70° C. for 15 min. The cDNA generated was used as a template in realtime PCR reactions.
# Real-Time PCR. Real-time PCR was performed using the Opticon 2 system from MJ Research (Waltham, Mass.). For the CYP19 total gene the PCR reaction mixture consisted of Taqman Universal PCR Master Mix (Applied Biosystems), 600 nM of CYP19 primer (sense: 5′-TGTCTCTTTGTTCTTCATGCTATTTCTC-3′ (SEQ ID NO: 1); antisense: 5′-TCACCAATAACAGTCTGGATTTCC-3′) (SEQ ID NO: 2); 250 nM Taqman probe (6FAM 5′-TGCAAAGCACCCTAATGTTGAAGAGGCAAT-3′TAMRA) (SEQ ID NO: 3) (Invitrogen), 18S rRNA (Applied Biosystems, Foster City, Calif.), and 2.0 μL of each RT sample in a final volume of 20 μL. The Taqman probe was designed to anneal to a specific sequence of the aromatase gene between the forward and the reverse primers. Cycling conditions were 50° C. for 2 mm and 95° C. for 10 mm, followed by 50 cycles at 95° C. for 15 s and 60° C. for 1 mm.
# as §1, with “extraction.” for “Extraction.”, “DNase,” for “DNase- and”
# as §2, with “synthesis.” for “Synthesis.”, “real-time” for “realtime”
# Real-time PCR. Real-time PCR was performed using the Opticon™ 2 system from MJ Research (Waltham, Mass.). For the CYP19 total gene the PCR reaction mixture consisted of Taqman® Universal PCR Master Mix (Applied Biosystems), 600 nM of CYP19 primer (sense: 5′-TGTCTCTTTGTTCTTCATGCTATTTCTC-3′ (SEQ ID NO: 1); antisense: 5′-TCACCAATAACAGTCTGGATTTCC-3′) (SEQ ID NO: 2); 250 nM Taqman probe (6FAM 5′-TGCAAAGCACCCTAATGTTGAAGAGGCAAT-3′TAMRA) (SEQ ID NO: 3) (Invitrogen), and 2.0 μL of each cDNA sample in a final volume of 20 μL. […]
melting point,Compound,cell cytotoxicity (MTT) (SK-BR-3 cells [1]),apoptotic effects (SK-BR-3 cells [2]),CYP19 gene expression [3]
119 to 121 °C,"CN(c1ccc([N+](=O)[O-])cc1OCc1ccc2ccccc2c1)S(C)(=O)=O [Compound 28c, N-methyl-N-[2-(β-naphthylmethoxy) 4-nitrophenyl]methanesulfonamide]",did not cause significant cell cytotoxicity,do not produce apoptotic effects,significantly decreased CYP19 gene expression
,"CN(c1ccc([N+](=O)[O-])cc1OCc1ccc([N+](=O)[O-])cc1)S(C)(=O)=O [Compound 27c, N-methyl-N-[2-(4′-nitrobenzyloxy)-4-nitrophenyl]methanesulfonamide]",did not cause significant cell cytotoxicity,do not produce apoptotic effects,significantly decreased CYP19 gene expression
128 to 129 °C,"CN(c1ccc([N+](=O)[O-])cc1OCc1ccccc1-c1ccccc1)S(C)(=O)=O [Compound 29c, N-methyl-N-[2-(2′-phenylbenzyloxy)-4-nitrophenyl]methanesulfonamide]",did not cause significant cell cytotoxicity,do not produce apoptotic effects,significantly decreased CYP19 gene expression
96 to 98 °C,"Cc1ccc(COc2cc([N+](=O)[O-])ccc2N(C)S(C)(=O)=O)cc1 [Compound 30c, N-methyl-N-[2-(4′-methylbenzyloxy)-4-nitrophenyl]methanesulfonamide]",did not cause significant cell cytotoxicity,do not produce apoptotic effects,
,"CN(c1ccc([N+](=O)[O-])cc1OCc1ccccc1)S(C)(=O)=O [Compound 26f, N-methyl-N-(2-benzyloxy-4-nitrophenyl) methanesulfonamide]",did not cause significant cell cytotoxicity,do not produce apoptotic effects,significantly decreased CYP19 gene expression
168 to 169 °C,"CN(c1ccc([N+](=O)[O-])cc1OCc1ccc(F)cc1)S(C)(=O)=O [Compound 33c, N-methyl-N-[2-(4′-fluorobenzyloxy)-4-nitrophenyl]methanesulfonamide]",did not cause significant cell cytotoxicity,do not produce apoptotic effects,significantly decreased CYP19 gene expression
